Each substance was assayed on EGFR and cMET co-expressed tumor cell lines (A431, A549, MDA-MB-468, MKN-45, NCI-H441, NCI-H1975) (assay: Binding activity of parent mAbs by flow cytometry). Details: flow cytometry on tumor cell lines, FIGS. 1A-1F, Table 5; compared with zalutumumab (zalu) or cetuximab.
Procedure: EGFR and cMET co-expressed tumor cell lines including A431 (ATCC® CRL-1555), A549 (ATCC® CCL-185, Provided by Procell), MDA-MB-468 (ATCC® HTB-132, Provided by Procell), MKN-45 (CL-0292, Provided by Procell), NCI-H441 (ATCC® HTB-174, Provided by COBIOER), NCI-H1975 (ATCC® CRL-5908, Provided by Procell) were selected for evaluating antibody binding activity by flow cytometry.
A431 was cultured with DMEM medium (Gibco, Cat #C11995500BT) containing 10% FBS. MDA-MB-468, MKN-45, NCI-H441 and NCI-H1975 were cultured with RPMI 1640 medium (Gibco, Cat #11875093) containing 10% FBS. A549 was cultured with F12K medium (Gibco, Cat #21127030) containing 10% FBS. Each antibody was incubated with different cell lines (1×10^5 cells/well) for 30 min in 0.2 mL FACS buffer (1×PBS with 0.1% BSA) at 4° C. After wash, cells were incubated with 100 μL PE-conjugated anti human Fc (Abcam, Ab98596, 1:500 dilution) for 30 min at 4° C. After wash with PBS, cells were resuspended in FACS buffer and analyzed by flow cytometer (Beckman, CytoFLEX).

Row | Substance | binding activity / affinity of parent EGFR mAbs (summary)
1 | Nectitumumab: parent EGFR mAb; sequences in Table 2 as Necitumumab [reference compound] | Stronger affinity than zalu,
2 | Nimotuzumab: parent EGFR mAb; sequences in Table 2 [reference compound] | Lower affinity than zalutumumab, no significant
3 | Panitumumab: parent EGFR mAb; sequences in Table 2 [reference compound] | Stronger affinity than cetuximab, binding remains
